Measurements from patent US10208056B2, “Condensed tricyclic compounds as protein kinase inhibitors” (FUNDACIÓN DEL SECTOR PÚBLICO ESTATAL CENTRO NACIONAL DE …, priority 2015, dated 2019).
Like-named read-outs stand apart in the source and are kept apart here.

Assays:
[1] = tested on: Molm13; experiment: In vitro cell proliferation assay (CellTiter-Glo), Molm13; assay type: cell-based; conditions: Homo sapiens, MOLM-13, growth inhibition, read-out: GI50 Molm13
[2] = molecular target: T1, intracellular CDK8 (Homo sapiens (Human), UniProt P49336); experiment: Endogenous phosphoSTAT1 inhibition in SW620 cells growing in 10% FBS; assay type: cell-based; conditions: read-out: SW620 P-STAT1(S727)
Procedure, shortened: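 SW620 cells in 10% FBS treated 8 h with compound, then lysed and phospho-STAT1 measured relative to total STAT1.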

[3] = molecular target: intracellular HASPIN (Homo sapiens (Human), UniProt Q8TF76); experiment: Endogenous phosphoH3 inhibition in SW620 cells growing in 10% FBS; assay type: cell-based; conditions: read-out: SW620 pH3(T3)
Method: Endogenous phosphoH3 inhibition can be screened in cells growing in 10% FBS. Cells are plated as described before and treated for 8 h with compounds as described before. Then cells are lysated and phospho H3 evaluated as described before. The percentage of phosphorylated H3 vs total H3 in cells treated with DMSO is taken as hundred percent of phosphorylation. The percentage of H3 phosphorylation is finally plotted against concentration for each compound and EC50s for intracellular HASPIN inhibition are calculated using ActivityBase from IDBS.

[4] = molecular target: T1, intracellular CDK8; experiment: Cellular CDK8 inhibition assay, western blot P-STAT1 (S727) in IFN-γ treated SW620 cells; assay type: cell-based; conditions: SW620, IFNγ treated, read-out: SW620 P-STAT1(S727) w IFNγ
[5] = molecular target: CDK19/Cyclin C (Homo sapiens (Human), UniProt Q9BWU1); experiment: CDK19/Cyclin C binding assay (LanthaScreen Eu-Kinase Binding Assay); conditions: read-out: CDK19-CYCC IC50
Procedure, shortened: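 LanthaScreen TR-FRET tracer-displacement format with 2 nM Cdk19-Cyclin C, 20 nM tracer and 2 nM Eu-anti-GST antibody. The buffer was 50 mM HEPES pH 7.5, 10 mM MgCl2, 1 mM EGTA, 0.01% Brij-35, with 1% DMSO final. Compounds were tested as 1:3 serial dilutions and incubated for 60 min at 25 °C.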

[6] = tested on: MV4:11; experiment: In vitro cell proliferation assay (CellTiter-Glo), MV4:11; assay type: cell-based; conditions: Homo sapiens, MV4-11, growth inhibition, read-out: GI50 MV4:11

CDK19/Cyclin C, sequence (Q9BWU1 whole entry): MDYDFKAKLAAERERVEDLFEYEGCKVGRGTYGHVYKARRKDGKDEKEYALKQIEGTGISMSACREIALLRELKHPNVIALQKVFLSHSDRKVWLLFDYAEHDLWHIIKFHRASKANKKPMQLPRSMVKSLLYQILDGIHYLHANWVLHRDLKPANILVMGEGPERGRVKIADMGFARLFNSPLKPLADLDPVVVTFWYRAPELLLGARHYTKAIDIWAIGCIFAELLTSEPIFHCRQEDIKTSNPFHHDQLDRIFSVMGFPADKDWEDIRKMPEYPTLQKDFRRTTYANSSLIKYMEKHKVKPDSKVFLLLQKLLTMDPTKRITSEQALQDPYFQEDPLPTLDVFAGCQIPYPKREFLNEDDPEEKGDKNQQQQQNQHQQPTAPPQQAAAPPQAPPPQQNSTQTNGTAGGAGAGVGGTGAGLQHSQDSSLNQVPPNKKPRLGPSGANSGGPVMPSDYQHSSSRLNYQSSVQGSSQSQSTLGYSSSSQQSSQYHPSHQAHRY
CDK19/Cyclin C, sequence (P24863 whole entry partner): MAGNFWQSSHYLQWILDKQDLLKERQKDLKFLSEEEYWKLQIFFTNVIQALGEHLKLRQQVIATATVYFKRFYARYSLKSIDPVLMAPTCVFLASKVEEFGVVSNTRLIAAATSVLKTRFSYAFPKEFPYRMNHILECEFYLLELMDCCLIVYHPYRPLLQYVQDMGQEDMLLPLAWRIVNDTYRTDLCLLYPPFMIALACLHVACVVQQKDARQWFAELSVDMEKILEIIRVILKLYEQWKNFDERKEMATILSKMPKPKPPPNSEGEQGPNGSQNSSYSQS
T1 sequence (P49336 whole entry): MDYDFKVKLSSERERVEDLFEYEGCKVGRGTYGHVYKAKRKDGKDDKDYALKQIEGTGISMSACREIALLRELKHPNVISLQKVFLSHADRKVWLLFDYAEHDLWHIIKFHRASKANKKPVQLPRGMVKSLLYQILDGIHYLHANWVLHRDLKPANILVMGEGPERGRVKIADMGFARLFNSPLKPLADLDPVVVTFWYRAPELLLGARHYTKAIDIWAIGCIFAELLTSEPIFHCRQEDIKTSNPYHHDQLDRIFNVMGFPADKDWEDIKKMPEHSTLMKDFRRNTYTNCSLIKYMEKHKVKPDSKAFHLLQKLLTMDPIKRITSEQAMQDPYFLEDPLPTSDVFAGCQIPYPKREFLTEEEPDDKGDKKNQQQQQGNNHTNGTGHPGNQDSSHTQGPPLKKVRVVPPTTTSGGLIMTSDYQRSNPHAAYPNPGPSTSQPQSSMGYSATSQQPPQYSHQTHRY
T1 sequence (P24863 whole entry partner): as the sequence (P24863 whole entry partner) above
T1 sequence (Q93074 whole entry partner): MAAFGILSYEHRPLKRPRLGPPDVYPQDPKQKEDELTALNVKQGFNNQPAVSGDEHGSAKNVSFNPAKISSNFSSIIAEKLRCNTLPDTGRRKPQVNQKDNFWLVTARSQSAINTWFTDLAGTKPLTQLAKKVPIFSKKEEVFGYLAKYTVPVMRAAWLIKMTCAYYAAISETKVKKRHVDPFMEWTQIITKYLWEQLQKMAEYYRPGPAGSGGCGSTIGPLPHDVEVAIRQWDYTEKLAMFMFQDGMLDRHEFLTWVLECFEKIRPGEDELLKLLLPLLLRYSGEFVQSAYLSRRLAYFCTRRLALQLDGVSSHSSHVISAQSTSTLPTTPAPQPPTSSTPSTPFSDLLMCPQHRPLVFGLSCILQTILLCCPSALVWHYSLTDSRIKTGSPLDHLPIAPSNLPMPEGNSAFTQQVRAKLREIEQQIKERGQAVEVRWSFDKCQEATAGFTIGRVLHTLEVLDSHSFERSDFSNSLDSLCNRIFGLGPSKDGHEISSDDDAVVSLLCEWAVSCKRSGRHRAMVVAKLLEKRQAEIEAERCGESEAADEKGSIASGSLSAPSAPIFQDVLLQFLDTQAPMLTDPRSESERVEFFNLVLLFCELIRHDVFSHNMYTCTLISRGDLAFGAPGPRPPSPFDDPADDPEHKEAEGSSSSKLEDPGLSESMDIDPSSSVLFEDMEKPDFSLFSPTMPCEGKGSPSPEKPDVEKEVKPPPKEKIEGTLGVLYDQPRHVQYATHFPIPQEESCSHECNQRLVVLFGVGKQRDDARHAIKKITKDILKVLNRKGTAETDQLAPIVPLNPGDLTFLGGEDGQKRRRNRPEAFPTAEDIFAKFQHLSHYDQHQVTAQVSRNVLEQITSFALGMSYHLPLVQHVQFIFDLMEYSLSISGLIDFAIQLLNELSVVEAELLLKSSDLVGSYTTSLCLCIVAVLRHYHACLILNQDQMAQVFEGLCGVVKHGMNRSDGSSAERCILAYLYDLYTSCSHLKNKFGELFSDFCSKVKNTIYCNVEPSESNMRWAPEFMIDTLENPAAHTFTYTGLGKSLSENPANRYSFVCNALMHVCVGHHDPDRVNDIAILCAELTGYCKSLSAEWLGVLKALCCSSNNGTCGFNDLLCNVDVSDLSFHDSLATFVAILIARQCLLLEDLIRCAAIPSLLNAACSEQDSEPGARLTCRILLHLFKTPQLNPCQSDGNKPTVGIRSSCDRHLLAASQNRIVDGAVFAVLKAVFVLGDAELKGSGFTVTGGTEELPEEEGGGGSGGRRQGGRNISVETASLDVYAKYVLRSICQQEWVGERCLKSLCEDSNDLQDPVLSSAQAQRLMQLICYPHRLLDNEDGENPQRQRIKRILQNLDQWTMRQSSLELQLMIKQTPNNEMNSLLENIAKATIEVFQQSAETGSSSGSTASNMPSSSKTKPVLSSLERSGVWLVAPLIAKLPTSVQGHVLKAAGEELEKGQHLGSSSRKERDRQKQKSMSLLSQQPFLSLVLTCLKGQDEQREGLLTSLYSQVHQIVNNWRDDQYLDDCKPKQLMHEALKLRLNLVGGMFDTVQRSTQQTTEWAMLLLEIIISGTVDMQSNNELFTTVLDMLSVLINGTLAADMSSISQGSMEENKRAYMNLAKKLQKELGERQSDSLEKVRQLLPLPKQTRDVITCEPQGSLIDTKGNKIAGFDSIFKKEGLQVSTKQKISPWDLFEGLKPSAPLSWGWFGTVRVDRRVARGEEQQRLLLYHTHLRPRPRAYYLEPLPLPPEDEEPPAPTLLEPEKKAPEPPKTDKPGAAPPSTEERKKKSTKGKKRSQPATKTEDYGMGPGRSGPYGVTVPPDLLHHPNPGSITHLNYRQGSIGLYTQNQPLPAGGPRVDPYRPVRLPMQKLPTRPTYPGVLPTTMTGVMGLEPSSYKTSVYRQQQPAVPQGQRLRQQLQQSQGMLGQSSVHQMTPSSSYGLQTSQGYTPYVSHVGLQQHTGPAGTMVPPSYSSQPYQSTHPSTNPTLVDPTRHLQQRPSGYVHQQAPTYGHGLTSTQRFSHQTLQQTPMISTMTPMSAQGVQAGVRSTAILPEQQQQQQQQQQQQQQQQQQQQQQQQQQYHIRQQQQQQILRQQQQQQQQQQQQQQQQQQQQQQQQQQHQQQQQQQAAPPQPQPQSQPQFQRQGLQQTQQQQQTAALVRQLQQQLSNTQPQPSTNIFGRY
intracellular HASPIN, sequence (Q8TF76 whole entry): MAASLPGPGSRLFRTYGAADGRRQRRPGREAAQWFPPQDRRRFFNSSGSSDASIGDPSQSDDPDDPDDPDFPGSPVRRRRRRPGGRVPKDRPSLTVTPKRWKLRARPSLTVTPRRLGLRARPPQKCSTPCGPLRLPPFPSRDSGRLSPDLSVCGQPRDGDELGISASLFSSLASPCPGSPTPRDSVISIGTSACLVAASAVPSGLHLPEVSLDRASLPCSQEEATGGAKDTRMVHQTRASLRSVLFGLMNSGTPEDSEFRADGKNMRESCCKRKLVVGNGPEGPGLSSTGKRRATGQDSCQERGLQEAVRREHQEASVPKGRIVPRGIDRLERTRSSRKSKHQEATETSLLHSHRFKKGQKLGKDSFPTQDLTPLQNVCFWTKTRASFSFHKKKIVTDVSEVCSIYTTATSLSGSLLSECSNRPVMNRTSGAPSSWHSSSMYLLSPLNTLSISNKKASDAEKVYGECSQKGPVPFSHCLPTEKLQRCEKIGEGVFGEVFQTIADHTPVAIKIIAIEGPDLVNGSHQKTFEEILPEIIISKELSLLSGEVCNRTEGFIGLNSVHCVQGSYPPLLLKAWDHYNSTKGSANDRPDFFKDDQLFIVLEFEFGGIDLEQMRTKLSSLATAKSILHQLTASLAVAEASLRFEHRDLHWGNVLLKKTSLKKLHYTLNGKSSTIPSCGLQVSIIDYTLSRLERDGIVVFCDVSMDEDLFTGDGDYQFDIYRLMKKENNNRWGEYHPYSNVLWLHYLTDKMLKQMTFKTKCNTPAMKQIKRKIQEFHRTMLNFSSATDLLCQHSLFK

Row | SMILES | GI50 ([1]; semiquantitative) [nM] | EC50 ([2]; semiquantitative) [nM] | EC50 ([3]; semiquantitative) [nM] | EC50 ([4]; semiquantitative) [nM] | IC50 [5] [nM] | GI50 ([6]; semiquantitative) [nM] | GI50 ([1]; quantitative) [nM] | EC50 ([2]; quantitative) [nM] | EC50 ([3]; quantitative) [nM] | EC50 ([4]; quantitative) [nM] | GI50 ([6]; quantitative) [nM]
1 | CCn1c(C(N)=O)c(-c2ccccc2OC)c2c1-c1ccncc1OC2(C)C [Example 68] | < 1000 | < 500 | < 500 | < 500 | 16.4 | < 1000 | – | – | – | – | –
2 | CC1(C)Oc2cnccc2-c2c1cc(C(N)=O)n2CCF [Example 52] | < 1000 | < 500 | < 500 | < 500 | 1.41 | < 1000 | – | – | – | – | –
3 | NC(=O)c1cc2c([nH]1)-c1ccncc1O[C@H]2C1CCOCC1 (single isomer, unassigned) [Example 72] | 1000 to 10000 | – | – | < 500 | 14.2 | 1000 to 10000 | – | – | – | – | –
4 | CCn1c(C(N)=O)cc2c1-c1ccncc1OC2(C)C [Example 43] | – | – | – | – | 1.09 | – | 349 | 1.5 | 1.6 | 0.064 | 115
